{"source": "patent US11607386B2", "about": "“Liposomes encapsulating adenosine” (New York University, priority 2019, dated 2023)", "origin": "cited, not measured here", "key": {"[1]": {"test": "not given", "remark": "listed apart in the source"}}}
{"smiles": "Nc1ncnc2c1ncn2[C@@H]1O[C@H](CO)[C@@H](O)[C@H]1O", "note": "[adenosine]", "values": [{"measurement": "half-life", "result": "mere seconds"}, {"measurement": "solubility of adenosine in water", "setting": "[1]", "result": 7000, "unit": "µg/mL"}]}
